These results are taken from ChEMBL document CHEMBL3351983, “Synthesis and biological evaluation of substituted 3-anilino-quinolin-2(1H)-ones as PDK1 inhibitors” (Bioorg Med Chem, 2014).

Test [1] concerns the target T1, 3-phosphoinositide-dependent protein kinase 1 (Homo sapiens) (UniProt O15530).
T1 sequence (whole entry): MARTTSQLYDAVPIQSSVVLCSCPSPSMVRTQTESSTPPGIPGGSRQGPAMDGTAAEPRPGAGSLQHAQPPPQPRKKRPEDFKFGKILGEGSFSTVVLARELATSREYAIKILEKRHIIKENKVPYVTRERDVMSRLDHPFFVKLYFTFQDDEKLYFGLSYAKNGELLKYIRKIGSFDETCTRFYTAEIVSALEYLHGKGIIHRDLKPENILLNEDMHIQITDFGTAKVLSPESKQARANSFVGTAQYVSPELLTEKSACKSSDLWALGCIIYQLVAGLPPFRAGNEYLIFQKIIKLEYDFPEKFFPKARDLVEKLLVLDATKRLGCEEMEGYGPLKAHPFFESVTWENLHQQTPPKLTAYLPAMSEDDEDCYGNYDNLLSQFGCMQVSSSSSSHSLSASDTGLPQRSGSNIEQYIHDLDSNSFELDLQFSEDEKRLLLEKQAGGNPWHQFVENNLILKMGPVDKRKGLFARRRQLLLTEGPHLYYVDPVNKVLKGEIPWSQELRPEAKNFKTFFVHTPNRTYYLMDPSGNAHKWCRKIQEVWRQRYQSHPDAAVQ
The test is described as follows: Inhibition of PDK1 (unknown origin) at 10 uM using PDKtide substrate and [gamma-32P]ATP by scintillation counting method.

In test [2] the target is T2, 3-phosphoinositide-dependent protein kinase 1 (Homo sapiens, UniProt O15530).
T2 sequence (O15530 whole entry): T1 sequence (whole entry)
The test is described as follows: Inhibition of PDK1 (unknown origin) using PDKtide substrate and [gamma-32P]ATP by scintillation counting method.

Take `NC(=O)Nc1ccc2[nH]c(=O)c(Nc3cccc(NC(=O)N4CCCC4)c3)cc2c1`: the inhibition in test [1] amounted to 40%.

Turning to `O=C(Cc1ccc2[nH]c(=O)c(Nc3ccccc3)cc2c1)NCCN1CCCCC1`, the inhibition in test [1] stood at 36%.

As to `CCOc1cccc(Nc2cc3cc(NC(=O)N4CCCC4)ccc3[nH]c2=O)c1`, the inhibition in test [1] came to 23%.

In test [1], `NC(=O)Nc1ccc2[nH]c(=O)c(Nc3cc(CC(=O)NCCN4CCCCC4)cc(NC(=O)N4CCCC4)c3)cc2c1` yielded an inhibition of 40%.

The compound `N#Cc1cccc(Nc2cc3cc(NC(=O)N4CCCC4)ccc3[nH]c2=O)c1` showed an inhibition in test [1] of 30%.

The compound `O=C(Nc1ccc2[nH]c(=O)c(Nc3cccc(-c4nnn[nH]4)c3)cc2c1)N1CCCC1` gave an inhibition in test [1] of 14%.

In test [1], `COc1cccc(-c2cccc(Nc3cc4cc(NC(=O)N5CCCC5)ccc4[nH]c3=O)c2)c1` came in with an inhibition of 29%.

In turn, `CN[C@@H]1CCc2ccccc21` gave an IC50 in test [2] of 200 nM.

`CC(=O)Nc1cccc(Nc2cc3cc(NC(N)=O)ccc3[nH]c2=O)c1` gave an inhibition in test [1] of 20%.
